Experimental data reported in US10745396B2, “Pesticidally active polycyclic derivatives with sulfur containing substituents” (Syngenta Participations AG, priority 2015, dated 2020).

Columns and labels:
Format in all cases: in vivo
[1] = test system: Plutella xylostella (Diamond Back Moth); test: Plutella xylostella, artificial diet, L2 larvae; details: 120 h, application rate of 200 ppm, 5 days after infestation, read-out: effect in at least one of the two categories (mortality or growth inhibition)
Description: Example B7: Plutella xylostella (Diamond Back Moth)
(§1) 24-well microtiter plates with artificial diet were treated with aqueous test solutions prepared from 10′000 ppm DMSO stock solutions by pipetting. After drying, the plates were infested with L2 larvae (10 to 15 per well). The samples were assessed for mortality and growth inhibition in comparison to untreated samples 5 days after infestation.

[2] = test system: Spodoptera littoralis (Egyptian Cotton Leaf Worm); test: Spodoptera littoralis, cotton leaf discs, L1 larvae; details: foliar, 72 h, application rate of 200 ppm, 3 days after infestation
Description: Example B8: Spodoptera littoralis (Egyptian Cotton Leaf Worm)
Cotton leaf discs were placed onto agar in 24-well microtiter plates and sprayed with aqueous test solutions prepared from 10′000 ppm DMSO stock solutions. After drying the leaf discs were infested with five L1 larvae. The samples were assessed for mortality, anti-feeding effect, and growth inhibition in comparison to untreated samples 3 days after infestation. Control of Spodoptera littoralis by a test sample is given when at least one of the categories mortality, anti-feedant effect, and growth inhibition is higher than the untreated sample.

[3] = test system: Diabrotica balteata (Corn Root Worm); test: Diabrotica balteata, maize sprouts on agar, L2 larvae; details: 96 h, application rate of 200 ppm, 4 days after infestation, read-out: effect in at least one of the two categories (mortality or growth inhibition)
Description: Example B2: Diabrotica balteata (Corn Root Worm)
as §1, with “Maize sprouts placed onto an agar layer in 24-well” for “24-well”, “plates” for “plates with artificial diet”, “spraying.” for “pipetting.”, “(6” for “(10”, “10” for “15”, “4” for “5”

[4] = test system: Myzus persicae (Green Peach Aphid); test: Myzus persicae feeding/contact activity, sunflower leaf discs; details: foliar, 144 h, application rate of 200 ppm, 6 days after infestation
Description: Example B5: Myzus persicae (Green Peach Aphid): Feeding/Contact Activity
Sunflower leaf discs were placed onto agar in a 24-well microtiter plate and sprayed with aqueous test solutions prepared from 10′000 ppm DMSO stock solutions. After drying, the leaf discs were infested with an aphid population of mixed ages. The samples were assessed for mortality 6 days after infestation.

[5] = test system: Euschistus heros (Neotropical Brown Stink Bug); test: Euschistus heros, soybean leaves on agar, N2 nymphs; details: 120 h, application rate of 200 ppm, 5 days after infestation, read-out: effect in at least one of the two categories (mortality or growth inhibition)
Description: Example B3: Euschistus heros (Neotropical Brown Stink Bug)
Soybean leaves on agar in 24-well microtiter plates were sprayed with aqueous test solutions prepared from 10′000 ppm DMSO stock solutions. After drying the leaves were infested with N2 nymphs. The samples were assessed for mortality and growth inhibition in comparison to untreated samples 5 days after infestation.

[6] = test system: Spodoptera littoralis (Egyptian Cotton Leaf Worm); test: Spodoptera littoralis, uptake by lettuce roots from agar, eggs; details: 144 h, test rate of 12.5 ppm, 6 days after infestation, read-out: effect in at least one of the three categories (mortality, anti-feeding, or growth inhibition)
Excerpt: Example B9: Spodoptera littoralis (Egyptian Cotton Leaf Worm)
Test compounds were applied by pipette from 10′000 ppm DMSO stock solutions into 24-well plates and mixed with agar. Lettuce seeds were placed onto the agar and the multi well plate was closed by another plate which contained also agar. After 7 days the compound was absorbed by the roots and the lettuce grew into the lid plate. The lettuce leaves were then cut off into the lid plate. Spodoptera eggs were pipetted through a plastic stencil onto a humid gel blotting paper and the lid plate was closed with it. The samples were assessed for mortality, anti-feedant effect and growth inhibition in comparison to untreated samples 6 days after infestation.

CCn1c(C(F)(F)F)cc2nc(-c3nc(-c4cncs4)ccc3S(=O)(=O)CC)n(C)c2c1=O [Compound P31]
≥ 80%: percent effect (mortality or growth inhibition) at 200 ppm [1] | percent control (mortality, anti-feedant effect or growth inhibition) at 200 ppm [2] | percent effect (mortality or growth inhibition) at 200 ppm [3] | mortality at 200 ppm [4]

CCn1c(C(F)(F)F)cc2nc(-c3nc(-c4ccc(F)c(F)c4)ccc3S(=O)(=O)CC)n(C)c2c1=O [Compound P34]
≥ 80%: percent effect (mortality or growth inhibition) at 200 ppm [1] | percent control (mortality, anti-feedant effect or growth inhibition) at 200 ppm [2] | percent effect (mortality or growth inhibition) at 200 ppm [3]

CCn1c(C(F)(F)F)cc2nc(-c3nc(-c4cccnc4)ccc3S(=O)(=O)CC)n(C)c2c1=O [Compound P30]
≥ 80%: percent effect (mortality or growth inhibition) at 200 ppm [5] | percent effect (mortality or growth inhibition) at 200 ppm [1] | percent control (mortality, anti-feedant effect or growth inhibition) at 200 ppm [2] | percent effect (mortality or growth inhibition) at 200 ppm [3] | mortality at 200 ppm [4]

CCn1c(C(F)(F)F)cc2nc(-c3nc(-c4cc(F)cc(Cl)c4)ccc3S(=O)(=O)CC)n(C)c2c1=O [Compound P19]
≥ 80%: percent effect (mortality or growth inhibition) at 200 ppm [1] | percent control (mortality, anti-feedant effect or growth inhibition) at 200 ppm [2] | percent effect (mortality or growth inhibition) at 200 ppm [3]

CCn1c(C(F)(F)F)cc2nc(-c3nc(-c4ccc(Cl)c(Cl)c4)ccc3S(=O)(=O)CC)n(C)c2c1=O [Compound P10]
≥ 80%: percent effect (mortality or growth inhibition) at 200 ppm [1] | percent control (mortality, anti-feedant effect or growth inhibition) at 200 ppm [2] | percent effect (mortality or growth inhibition) at 200 ppm [3]

CCn1c(C(F)(F)F)cc2nc(-c3nc(-c4ccsc4)ccc3S(=O)(=O)CC)n(C)c2c1=O [Compound P27]
≥ 80%: percent control (mortality, anti-feedant effect or growth inhibition) at 200 ppm [2]

CCn1c(C(F)(F)F)cc2nc(-c3nc(-c4cccc(Cl)c4)ccc3S(=O)(=O)CC)n(C)c2c1=O [Compound P17]
≥ 80%: percent effect (mortality or growth inhibition) at 200 ppm [5] | percent effect (mortality or growth inhibition) at 200 ppm [1] | percent control (mortality, anti-feedant effect or growth inhibition) at 200 ppm [2] | percent effect (mortality or growth inhibition) at 200 ppm [3] | mortality at 200 ppm [4]

CCn1c(C(F)(F)F)cc2nc(-c3nc(-c4ccc(OC(F)(F)F)cc4)ccc3S(=O)(=O)CC)n(C)c2c1=O [Compound P22]
≥ 80%: percent effect (mortality or growth inhibition) at 200 ppm [5] | percent effect (mortality or growth inhibition) at 200 ppm [1] | percent control (mortality, anti-feedant effect or growth inhibition) at 200 ppm [2] | percent effect (mortality, anti-feeding or growth inhibition) at 12.5 ppm [6] | percent effect (mortality or growth inhibition) at 200 ppm [3]

CCn1c(C(F)(F)F)cc2nc(-c3nc(-c4cc(F)cc(F)c4)ccc3S(=O)(=O)CC)n(C)c2c1=O [Compound P12]
≥ 80%: percent effect (mortality or growth inhibition) at 200 ppm [5] | percent effect (mortality or growth inhibition) at 200 ppm [1] | percent control (mortality, anti-feedant effect or growth inhibition) at 200 ppm [2] | percent effect (mortality, anti-feeding or growth inhibition) at 12.5 ppm [6] | percent effect (mortality or growth inhibition) at 200 ppm [3] | mortality at 200 ppm [4]

CCS(=O)(=O)c1ccc(-n2cc(Cl)cn2)nc1-c1nc2cc(C(F)(F)F)n(C)c(=O)c2n1C [Compound P7, 2-[6-(4-chloropyrazol-1-yl)-3-ethylsulfonyl-2-pyridyl]-3,5-dimethyl-6-(trifluoromethyl)imidazo[4,5-c]pyridin-4-one]
≥ 80%: percent control (mortality, anti-feedant effect or growth inhibition) at 200 ppm [2]

CCn1c(C(F)(F)F)cc2nc(-c3nc(-c4ccc(C#N)cc4)ccc3S(=O)(=O)CC)n(C)c2c1=O [Compound P15]
≥ 80%: percent effect (mortality or growth inhibition) at 200 ppm [5] | percent effect (mortality or growth inhibition) at 200 ppm [1] | percent control (mortality, anti-feedant effect or growth inhibition) at 200 ppm [2] | percent effect (mortality, anti-feeding or growth inhibition) at 12.5 ppm [6] | percent effect (mortality or growth inhibition) at 200 ppm [3]

CCn1c(C(F)(F)F)cc2nc(-c3nc(-c4ccc(OC)c(F)c4)ccc3S(=O)(=O)CC)n(C)c2c1=O [Compound P23]
≥ 80%: percent effect (mortality or growth inhibition) at 200 ppm [5] | percent effect (mortality or growth inhibition) at 200 ppm [1] | percent control (mortality, anti-feedant effect or growth inhibition) at 200 ppm [2] | percent effect (mortality or growth inhibition) at 200 ppm [3] | mortality at 200 ppm [4]

CCn1c(C(F)(F)F)cc2nc(-c3nc(-c4ccc(Cl)cc4Cl)ccc3S(=O)(=O)CC)n(C)c2c1=O [Compound P32]
≥ 80%: percent effect (mortality or growth inhibition) at 200 ppm [1] | percent control (mortality, anti-feedant effect or growth inhibition) at 200 ppm [2] | percent effect (mortality or growth inhibition) at 200 ppm [3]

CCS(=O)(=O)c1ccc(-c2cc(F)cc(F)c2)nc1-c1nc2cc(C(F)(F)F)n(C3CC3)c(=O)c2n1C [Compound P41]
≥ 80%: percent effect (mortality or growth inhibition) at 200 ppm [1] | percent control (mortality, anti-feedant effect or growth inhibition) at 200 ppm [2] | percent effect (mortality, anti-feeding or growth inhibition) at 12.5 ppm [6] | percent effect (mortality or growth inhibition) at 200 ppm [3]

CCn1c(C(F)(F)F)cc2nc(-c3nc(-c4cc(F)c(F)c(F)c4)ccc3S(=O)(=O)CC)n(C)c2c1=O [Compound P35]
≥ 80%: percent effect (mortality or growth inhibition) at 200 ppm [5] | percent effect (mortality or growth inhibition) at 200 ppm [1] | percent control (mortality, anti-feedant effect or growth inhibition) at 200 ppm [2] | percent effect (mortality or growth inhibition) at 200 ppm [3]

CCS(=O)(=O)c1ccc(-n2cc(C(F)(F)F)cn2)nc1-c1nc2cc(C(F)(F)F)n(C)c(=O)c2n1C [Compound P9]
≥ 80%: percent effect (mortality or growth inhibition) at 200 ppm [5] | percent effect (mortality or growth inhibition) at 200 ppm [1] | percent control (mortality, anti-feedant effect or growth inhibition) at 200 ppm [2] | percent effect (mortality or growth inhibition) at 200 ppm [3]

CCn1c(C(F)(F)F)cc2nc(-c3nc(C4CC4)ccc3S(=O)(=O)CC)n(C)c2c1=O [Compound P39]
≥ 80%: percent effect (mortality or growth inhibition) at 200 ppm [5] | percent effect (mortality or growth inhibition) at 200 ppm [1] | percent control (mortality, anti-feedant effect or growth inhibition) at 200 ppm [2] | percent effect (mortality, anti-feeding or growth inhibition) at 12.5 ppm [6] | percent effect (mortality or growth inhibition) at 200 ppm [3] | mortality at 200 ppm [4]

C/C=C/c1ccc(S(=O)(=O)CC)c(-c2nc3cc(C(F)(F)F)n(CC)c(=O)c3n2C)n1 [Compound P25]
≥ 80%: percent control (mortality, anti-feedant effect or growth inhibition) at 200 ppm [2] | percent effect (mortality or growth inhibition) at 200 ppm [3] | mortality at 200 ppm [4]

CCn1c(C(F)(F)F)cc2nc(-c3nc(-c4cc(C(F)(F)F)cc(C(F)(F)F)c4)ccc3S(=O)(=O)CC)n(C)c2c1=O [Compound P36]
≥ 80%: percent effect (mortality or growth inhibition) at 200 ppm [1] | percent control (mortality, anti-feedant effect or growth inhibition) at 200 ppm [2] | percent effect (mortality or growth inhibition) at 200 ppm [3]

CCn1c(C(F)(F)F)cc2nc(-c3nc(-c4ccc(Cl)c(C)c4)ccc3S(=O)(=O)CC)n(C)c2c1=O [Compound P24]
≥ 80%: percent effect (mortality or growth inhibition) at 200 ppm [1] | percent control (mortality, anti-feedant effect or growth inhibition) at 200 ppm [2] | percent effect (mortality or growth inhibition) at 200 ppm [3]

CCn1c(C(F)(F)F)cc2nc(-c3nc(-c4ccc(C(F)(F)F)cc4F)ccc3S(=O)(=O)CC)n(C)c2c1=O [Compound P33]
≥ 80%: percent effect (mortality or growth inhibition) at 200 ppm [1] | percent control (mortality, anti-feedant effect or growth inhibition) at 200 ppm [2] | percent effect (mortality or growth inhibition) at 200 ppm [3]

CCn1c(C(F)(F)F)cc2nc(-c3nc(-c4ccc(C(F)(F)F)cc4)ccc3S(=O)(=O)CC)n(C)c2c1=O [Compound P2, 5-ethyl-2-[3-ethylsulfonyl-6-[4-(trifluoromethyl)phenyl]-2-pyridyl]-3-methyl-6-(trifluoromethyl)imidazo[4,5-c]pyridin-4-one]
≥ 80%: percent effect (mortality or growth inhibition) at 200 ppm [5] | percent effect (mortality or growth inhibition) at 200 ppm [1] | percent control (mortality, anti-feedant effect or growth inhibition) at 200 ppm [2] | percent effect (mortality or growth inhibition) at 200 ppm [3]

CCn1c(C(F)(F)F)cc2nc(-c3nc(-c4ccc(F)cc4)ccc3S(=O)(=O)CC)n(C)c2c1=O [Compound P26]
≥ 80%: percent effect (mortality or growth inhibition) at 200 ppm [1] | percent control (mortality, anti-feedant effect or growth inhibition) at 200 ppm [2]

CCn1c(C(F)(F)F)cc2nc(-c3nc(-c4ccccc4)ccc3S(=O)(=O)CC)n(C)c2c1=O [Compound P18]
≥ 80%: percent effect (mortality or growth inhibition) at 200 ppm [5] | percent effect (mortality or growth inhibition) at 200 ppm [1] | percent control (mortality, anti-feedant effect or growth inhibition) at 200 ppm [2] | percent effect (mortality, anti-feeding or growth inhibition) at 12.5 ppm [6] | percent effect (mortality or growth inhibition) at 200 ppm [3] | mortality at 200 ppm [4]
